# Test results: PMC5095173, “Disulfide-activated protein kinase G Iα regulates cardiac diastolic relaxation and fine-tunes the Frank–Starling response” (Nature Communications, 2016)
# Where no end group is shown, it is not given here. [ ]: non-standard residue; d: D form. pT = C[C@@H](OP(=O)(O)O)[C@H](N)C(=O)O; Met(O) = CS(=O)CC[C@H](N)C(=O)O; pS = N[C@@H](COP(=O)(O)O)C(=O)O
# Key:
# [1] = tested on: PKGIα (analogue-sensitive C42S/M438G), cGMP-activated; assay: Chemical genetic phosphoproteomic screen, cGMP-activated PKGIα C42S/M438G versus unactivated control; format: biochemical, human PKGIα; substrates in rat heart homogenate; details: for log2 fold changes: Group 1 (cGMP-activated) vs Group 3 (control); for log2 fold change cGMP vs Control: control = PKGIα C42S/M438G; for Log2 fold change in phosphorylation, cGMP versus control: PKGIα C42S/M438G + 100 μM cGMP vs basal, 1 h, 30 °C, pH 7.5, rat heart homogenate, label-free LC–MS/MS, n=4, * P<0.05 Dunnett: all values except phospholamban S16
# From the text: (§1) We employed a chemical genetic method[18] to identify direct substrates of cGMP-activated PKGIα and disulfide bond-activated PKGIα in heart tissue. This method involves mutation of the ATP binding-site of the kinase of interest so that it can accept a ‘bulky' N6-alkylated ATP analogue for example, N6^−phenylethyl ATP. An oxygen atom on the γ phosphate is also replaced with a sulfur atom—giving an N6-alkylated ATPγS analogue—so that the mutant kinase catalyses the transfer of a thiophosphate group (–PO3S^3−) to its substrates instead of a phosphate. The thiophosphate group is nucleophilic, providing a basis for substrates of the analogue-sensitive kinase to be purified by a ‘covalent capture' protocol. LC–MS/MS allows identification of the substrate and localization of the phosphorylation site. Thiophosphorylated proteins can also be detected with a thiophosphate ester-specific antibody. Analogue-sensitive mutants of PKGIα and PKGIα C42S (which cannot form the activating intermolecular disulfide bond) were generated by mutating Met438 in the ATP-binding domain to Gly. This mutation was chosen based on a previous study where an analogue-sensitive mutant of the catalytic subunit of PKA—which shares sequence homology with PKGIα—was engineered. Detailed protocols are given below.
# (§2) A pCDNA3 expression vector encoding human FLAG-tagged PKGIα (ref. [41]) underwent site-directed mutagenesis to generate constructs for untagged WT, C42S, M438G and C42S/M438G PKGIα. Mutations were introduced using the QuikChange II Site-Directed Mutagenesis Kit (Agilent) according to the manufacturer's instructions. Expression and purification of the PKGIα mutants was performed according to a published method[42] as follows: suspension FreeStyle 293-F cells (ThermoFisher Scientific) were transfected with the appropriate PKGIα construct using the stable cationic polymer polyethyleneimine (PEI) as a transfection reagent. After ∼72 h cells were harvested by centrifugation (400g; room temperature; 15 min), re-suspended in ice cold lysis buffer (25 mM sodium phosphate buffer pH 6.8; 10 mM ethylenediaminetetraacetic acid (EDTA); 100 mM NaCl; 10 mM benzamidine hydrochloride; and 10 mM dithiothreitol (DTT)) and frozen in liquid N2. Cells were lysed by three freeze (liquid N2)-thaw (37 °C) cycles and the lysate was clarified by centrifugation at 140,000g and 4 °C for 30 min. The soluble protein fraction was loaded onto a pre-equilibrated 8-(2-aminoethylamino)adenosine-3′, 5′-cyclic monophosphate column (8-AEA-cAMP agarose; BioLog, Germany) followed by washing with 20 column volumes of lysis buffer. The column was further washed with lysis buffer +3 M NaCl (5 column volumes) and PKGIα was then eluted with lysis buffer +150 mM NaCl and 500 μM cAMP. Removal of cAMP and buffer exchange was achieved by extensive dialysis against 25 mM sodium phosphate buffer pH 6.8, 2 mM EDTA and 100 mM NaCl. For ITC analysis, WT PKGIα was incubated with 10 mM lipoic acid for 2 h on ice to obtain ∼100% disulfide dimer (confirmed by SDS-PAGE). Oxidized WT or C42S PKGIα was further purified by size exclusion chromatography using a HiLoad 16/600 Superdex 200 pg column (GE Healthcare) with 50 mM sodium phosphate buffer pH 7.4 and 100 mM NaCl. Proteins were concentrated using Amicon Ultra centrifugal filter devices (Merck Millipore). DTT was absent in storage buffers so that the activating disulfide bond would not be reduced and so that the PKGIα M438G mutant would be oxidized to disulfide dimer in the presence of air (confirmed by SDS-PAGE). Protein concentration was determined by Pierce BCA assay (ThermoFisher) and enzyme activity was confirmed using the Omnia kinase assay kit (ThermoFisher).
# (§3) Male Wistar rats (9–10 weeks; body weight 300–330 g) were euthanized by intraperitoneal injection of sodium pentobarbitone (200 mg kg^−1) with heparin (500 USP units). […]
# [2] = tested on: PKGIα (analogue-sensitive M438G), disulfide-activated; assay: Chemical genetic phosphoproteomic screen, disulfide-activated PKGIα M438G versus unactivated control; format: biochemical, human PKGIα; substrates in rat heart homogenate; details: for log2 fold changes: Group 2 (disulfide-activated) vs Group 3 (control); for log2 fold change Disulfide vs Control: control = PKGIα C42S/M438G; for Log2 fold change in phosphorylation, Disulfide versus control: disulfide-activated PKGIα M438G vs basal, 1 h, 30 °C, pH 7.5, rat heart homogenate, label-free LC–MS/MS, * P<0.05 Dunnett: only phospholamban S16
# From the text: as §1, §2, §3
# [3] = tested on: PKGIα disulfide dimer; details: HEK cells, murine aortic rings or mesenteric blood vessels; ref Burgoyne et al. Hypertension 60, 1301-1308 (2012); Rudyk et al. Circulation 126, 287-295 (2012); cited from earlier work
# [4] = tested on: PKGIα (VASP phosphorylation) in mouse embryonic fibroblasts; details: ref Muller et al. Free Radic Biol Med 53, 1574-1583 (2012); cited from earlier work
# From the text: This transgenic model was developed by the Sadoshima lab (Newark, USA) and the data are included in a PhD thesis (2015) by Daniel Stubbert from this lab. We have amended the manuscript so that it now states that the ...
# [5] = tested on: PLN threonine 17; details: cardiac myocytes exposed to hydrogen peroxide; no reference given; cited from earlier work
Compound,log2 fold change cGMP vs Control [1],log2 fold change Disulfide vs Control [2],further results
Speg pS2019,,,log2 fold changes [1]: 1.632; log2 fold changes [2]: 1.452
Tnni3 pS167 (AKE[pS]LDLR),,,log2 fold changes [1]: 3.492; log2 fold changes [2]: 1.654
Limd1 pS303,2.801,2.11,
"Stmn1 pS31 (SKESVPEFPLSPPK; also: phosphoserine pS31, several Ser, place not given here)",,,log2 fold changes [1]: 4.264; log2 fold changes [2]: 0.3093
RApSTIEMPQQAR [phosphopeptide from the cardiac protein phospholamban],,,"phosphopeptide abundance relative to control, PKGIα activated by Cys42 oxidation ([2]; PLN pSer16, P<0.05, n=4): significantly increased relative to control"
CC(=O)OC[C@H]1O[C@@H]([S-])[C@H](OC(C)=O)[C@@H](OC(C)=O)[C@@H]1OC(C)=O.CCP(CC)CC.[Au+] [auranofin],,,PKGIα disulfide dimer upon treatment [3]: accumulation of PKGIα disulfide dimer
Tnni3 pS151,,,log2 fold changes [1]: 2.921; log2 fold changes [2]: -0.2077
"Snx17 pS437 (LSSKLSAVSLR; also: phosphoserine pS437, several Ser, place not given here)",,,log2 fold changes [1]: 3.5; log2 fold changes [2]: 1.271
"Mybbp1a pS1318 (ARLSLVSR; also: phosphoserine (pS1318), site in peptide not given here)",-0.9192,-0.09923,
Pde4a pS140 (RE[pS]FLYR),1.223,1.1526,
Mylk3 pS155 (KG[pS]LADGPEENKEQAEVAGVKPK),3.16,1.131,
"Wipf1 pS324 (NLSLTSPTPPLPSPGR; also: phosphoserine pS324, several Ser, place not given here)",,,log2 fold changes [1]: 2.215; log2 fold changes [2]: -0.2547
Speg pS2410,,,log2 fold changes [1]: -0.7401; log2 fold changes [2]: -0.1096
Nucb1 pS368 (AQRL[pS]QETEALGR),5.775,3.208,
Pln pS16 (RA[pS]TIEMPQQAR; not fully specified (residue 7)),-0.8119,0.4097,
Map1a pS460,2.406,0.5914,
Trmt10c pT377 (RKH[pT]GYLEVPEHSQAAFR),1.984,0.4487,
"CAP-Gly domain-containing linker protein 2: PKGIα substrate, phospho site S353",,,"Log2 fold change in phosphorylation, cGMP versus control [1]: 2.05*; Log2 fold change in phosphorylation, Disulfide versus control ([2]; n=4): 0.98"
Trip12 pS1073,1.63,0.661,
"E3 ubiquitin-protein ligase TRIP12: PKGIα substrate, phospho site S1073",,,"Log2 fold change in phosphorylation, cGMP versus control [1]: 1.63*; Log2 fold change in phosphorylation, Disulfide versus control ([2]; n=4): 0.66"

Compound,log2 fold change cGMP vs Control [1],log2 fold change Disulfide vs Control [2],further results
"Microtubule-associated protein 1A: PKGIα substrate, phospho site S460",,,"Log2 fold change in phosphorylation, cGMP versus control [1]: 2.41*; Log2 fold change in phosphorylation, Disulfide versus control ([2]; n=4): 0.59"
"Sarnp pS138 (GLSSDTKP[Met(O)]VNLDK; also: phosphoserine, site not given here)",,,log2 fold changes [1]: 4.118; log2 fold changes [2]: 1.9607
Set pS7 (RQ[pS]AILPQPK),3.804,1.764,
Clip2 pS353,2.051,0.983,
Mink1 pS997 (KG[pS]VVNVNPTNTR),0.5982,0.583,
"Protein SET: PKGIα substrate, phospho site S7",,,"Log2 fold change in phosphorylation, cGMP versus control [1]: 3.80*; Log2 fold change in phosphorylation, Disulfide versus control ([2]; n=4): 1.76"
Prkcdbp pS199 (KG[pS]EAAQPTPVKPPR),1.54,1.3478,
"Olr1571 pS170 (AISSSQGK; also: phosphoserine (pS170), site in peptide not given here)",-4.008,-1.218,
"Mthfd1 pT545 (KITIGQAPTEK; also: phosphothreonine (pT545), site in peptide not given here)",3.681,1.475,
OO [hydrogen peroxide],,,effect of pre-oxidation of PKGIα on its activation by cGMP [4]: slightly attenuated; PLN threonine 17 phosphorylation [5]: will become phosphorylated
Speg pS2135,,,log2 fold changes [1]: 4.01; log2 fold changes [2]: 1.764
"Nucb2 pS85 (SGRLSQELDLVSHK; also: phosphoserine (pS85), site in peptide not given here)",-1.746,-0.4443,
"Cardiac phospholamban: PKGIα substrate, phospho site S16 (MEKVQYLTRSAIRRA[pS]TIEMPQQARQNLQNLFINFCLILICLLLICIIVMLL; cysteine pairing not given here; UniProt P61016 1-52, looked up)",,,"Log2 fold change in phosphorylation, cGMP versus control [1]: −0.81; Log2 fold change in phosphorylation, Disulfide versus control ([2]; n=4): 0.41*"
"Mrps31 pS191 (RVSFTQIISNMK; also: phosphoserine (pS191), site in peptide not given here)",0.6921,0.1676,
"Rnf123 pS690 (FLSTAAVSL[Met(O)]TPR; also: phosphoserine, site not given here)",3.971,-1.634,
"Pcnp pS95 (KASAISIR; also: phosphoserine (pS95), site in peptide not given here)",-1.793,0.1824,
"Ryr2 pS2798 (RISQTSQVSIDAAHGYSPR; also: phosphoserine (pS2798), site in peptide not given here)",,,log2 fold changes [1]: 1.758; log2 fold changes [2]: -0.1315
Prrc2a pS457,0.5056,0.2134,
Foxo1 pS270,0.9588,0.7421,
"Troponin I, cardiac muscle: PKGIα substrate, phospho site S167",,,"Log2 fold change in phosphorylation, cGMP versus control [1]: 3.49*; Log2 fold change in phosphorylation, Disulfide versus control ([2]; n=4): 1.65"
